What all share (assay type): biochemical
One assay concerns the target T1, Syk (Homo sapiens, UniProt P43405).
T1 construct: purchased BPS Bioscience, CA, USA
Briefly: Syk enzyme assay (flash plate / Caliper mobility shift). On the procedure:
The kinase assay is performed either as 384-well Flashplate assay (for e.g. Topcount measurement) or as 384-well Image-Flashplate assay (for LEADseeker measurement).
2.5 nM SYK, 400 nM Biotin-Aha-Aha-[…] and 10 μM ATP (spiked with 0.3 μCi 33P-ATP/well) are incubated in a total volume of 50 μl (60 mM Hepes, 10 mM MgCl2, 1.2 mM Dithiothreitol, 0.02% Brij35, 0.1% BSA, pH 7.5) with or without test compound for 1 hours at 30° C. The reaction is stopped with 25 μl 200 mM EDTA. After 30 Min at 30° C. the liquid is removed and each well washed thrice with 100 μl 0.9% sodium chloride solution. Non-specific reaction is determined in presence of 0.1 μM Staurosporine. Radioactivity is measured with Topcount (when using Flashplates) or with LEADseeker (when using Image-Flashplates) respectively. Results (e.g. IC50-values) are calculated with program tools provided by the IT-department (e.g. Symyx Assay Explorer, Genedata Screener).
(§1) Enzymatic Assays Using the Caliper LifeSciences Technology
(§2) The assays described here are performed on the Caliper Life Sciences LC3000 system This technology provides data on enzyme activity via measurement of the relative amounts of phosphorylated or unphosphorylated fluorescently labelled substrate peptide at the end of an enzymatic reaction. These different states of peptide are resolved by applying a potential difference across the sample. The presence of the charged phosphate group on the product (as opposed to the substrate) causes a different peptide mobility between the two peptides. This is visualized by excitation of the fluorescent label on the substrate and product peptides and represented as peaks within the analysis software.
(§3) In order to measure inhibitor activity of kinase inhibitors on this technology, a TTP Mosquito liquid handling instrument is used to place 0.25 ul of the appropriate concentration of inhibitor in 100% DMSO (for a dose response curve calculation) into each well of a 384-well plate. To this reaction components are added to a final volume of 25 ul. The table below indicates the sequences and concentrations for the assays described in this report. Standard components are 1 mM DTT (Sigma, D0632), 1 mM MgCl2 (Sigma, M1028), 100 mM HEPES pH 7.5 (Calbiochem, 391338), 0.015% Brij-35 (Sigma, B4184).
(§4) The reaction is incubated for 90 min at 25 C, and then stopped by the addition of 70 ul of Stop buffer (100 mM HEPES pH 7.5, 0.015% Brij-35, 10 mM EDTA (Sigma, E7889)).
(§5) The plate is read on a Caliper LC 3000 in an Off-Chip mobility shift assay format, on a 12-sipper chip. Unphosphorylated substrate and phosphorylated product peptide resolve as separate peaks allowing direct measurement of percentage of conversion of substrate to product. The percent conversion can be plotted against concentration of inhibitor to produce a sigmoidal dose response curve, from which an IC50 can be calculated using GeneData Condoseo or a similar product. Cellular activity assays

A further assay deals with T2, Src (Homo sapiens, UniProt P12931).
T2 construct: purchased Carna Bioscience, Kobe, Japan
T2 sequence (P12931 whole entry): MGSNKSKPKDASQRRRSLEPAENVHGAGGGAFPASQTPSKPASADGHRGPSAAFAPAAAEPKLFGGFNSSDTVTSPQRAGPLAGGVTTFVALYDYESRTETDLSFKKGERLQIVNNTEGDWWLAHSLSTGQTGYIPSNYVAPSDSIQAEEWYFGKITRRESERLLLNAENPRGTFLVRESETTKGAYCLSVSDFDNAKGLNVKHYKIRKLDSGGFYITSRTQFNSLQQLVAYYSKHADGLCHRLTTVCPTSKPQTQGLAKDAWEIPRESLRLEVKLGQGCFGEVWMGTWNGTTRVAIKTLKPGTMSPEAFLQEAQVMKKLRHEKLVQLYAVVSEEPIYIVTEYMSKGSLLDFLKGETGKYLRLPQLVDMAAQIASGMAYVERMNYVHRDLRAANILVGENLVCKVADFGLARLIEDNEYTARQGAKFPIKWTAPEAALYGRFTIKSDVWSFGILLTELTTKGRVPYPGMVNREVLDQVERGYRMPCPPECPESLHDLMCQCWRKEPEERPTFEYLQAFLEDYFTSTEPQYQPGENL
Briefly: cSrc enzymatic assay (Caliper LifeSciences technology). On the procedure: as §1, §2, §3, §4, §5

The target of another assay is T3, KDR (Homo sapiens, UniProt P35968).
T3 construct: purchased BPS Bioscience, CA, USA
T3 sequence (P35968 20-1356): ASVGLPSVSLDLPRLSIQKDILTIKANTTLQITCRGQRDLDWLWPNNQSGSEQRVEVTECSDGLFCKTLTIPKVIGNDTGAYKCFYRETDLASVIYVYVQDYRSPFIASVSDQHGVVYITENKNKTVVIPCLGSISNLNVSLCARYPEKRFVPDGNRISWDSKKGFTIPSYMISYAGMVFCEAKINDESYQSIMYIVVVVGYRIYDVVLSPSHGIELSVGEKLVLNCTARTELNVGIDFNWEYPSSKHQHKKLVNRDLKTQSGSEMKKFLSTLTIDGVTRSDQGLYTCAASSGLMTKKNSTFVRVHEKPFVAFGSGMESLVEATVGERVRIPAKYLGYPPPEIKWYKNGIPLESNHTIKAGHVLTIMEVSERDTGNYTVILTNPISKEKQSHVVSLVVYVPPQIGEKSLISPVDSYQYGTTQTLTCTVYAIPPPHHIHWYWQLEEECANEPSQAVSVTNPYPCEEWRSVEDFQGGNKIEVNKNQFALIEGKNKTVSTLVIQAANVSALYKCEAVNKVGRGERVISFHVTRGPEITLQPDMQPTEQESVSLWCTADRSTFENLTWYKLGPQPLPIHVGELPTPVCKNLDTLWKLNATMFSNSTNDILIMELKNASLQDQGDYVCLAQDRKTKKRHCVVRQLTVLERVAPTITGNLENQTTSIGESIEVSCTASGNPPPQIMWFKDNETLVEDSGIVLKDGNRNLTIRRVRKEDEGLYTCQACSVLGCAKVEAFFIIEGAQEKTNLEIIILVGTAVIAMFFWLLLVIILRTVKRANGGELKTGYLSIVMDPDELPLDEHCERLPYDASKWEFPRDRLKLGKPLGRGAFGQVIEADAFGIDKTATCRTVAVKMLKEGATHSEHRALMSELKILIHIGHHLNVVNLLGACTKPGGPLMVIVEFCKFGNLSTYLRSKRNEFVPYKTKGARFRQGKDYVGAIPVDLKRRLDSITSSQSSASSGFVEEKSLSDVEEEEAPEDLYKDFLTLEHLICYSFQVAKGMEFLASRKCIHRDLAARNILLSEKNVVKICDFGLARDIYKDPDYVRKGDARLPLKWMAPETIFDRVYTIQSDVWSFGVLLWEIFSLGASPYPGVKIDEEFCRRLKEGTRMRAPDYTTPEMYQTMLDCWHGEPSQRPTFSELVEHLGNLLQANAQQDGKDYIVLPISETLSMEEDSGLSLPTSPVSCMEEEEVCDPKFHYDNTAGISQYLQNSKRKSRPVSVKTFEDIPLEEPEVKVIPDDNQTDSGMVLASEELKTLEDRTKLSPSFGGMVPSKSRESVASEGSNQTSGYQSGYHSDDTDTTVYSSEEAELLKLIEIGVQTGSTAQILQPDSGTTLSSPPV
The assay is described as follows: KDR enzymatic assay (Caliper LifeSciences technology). On the procedure:
as §1, §2, §3, §4, §5

The next assay concerns the target T4, ZAP-70 (Homo sapiens, UniProt P43403).
T4 construct: purchased BPS Bioscience, CA, USA
T4 sequence (P43403 1-619): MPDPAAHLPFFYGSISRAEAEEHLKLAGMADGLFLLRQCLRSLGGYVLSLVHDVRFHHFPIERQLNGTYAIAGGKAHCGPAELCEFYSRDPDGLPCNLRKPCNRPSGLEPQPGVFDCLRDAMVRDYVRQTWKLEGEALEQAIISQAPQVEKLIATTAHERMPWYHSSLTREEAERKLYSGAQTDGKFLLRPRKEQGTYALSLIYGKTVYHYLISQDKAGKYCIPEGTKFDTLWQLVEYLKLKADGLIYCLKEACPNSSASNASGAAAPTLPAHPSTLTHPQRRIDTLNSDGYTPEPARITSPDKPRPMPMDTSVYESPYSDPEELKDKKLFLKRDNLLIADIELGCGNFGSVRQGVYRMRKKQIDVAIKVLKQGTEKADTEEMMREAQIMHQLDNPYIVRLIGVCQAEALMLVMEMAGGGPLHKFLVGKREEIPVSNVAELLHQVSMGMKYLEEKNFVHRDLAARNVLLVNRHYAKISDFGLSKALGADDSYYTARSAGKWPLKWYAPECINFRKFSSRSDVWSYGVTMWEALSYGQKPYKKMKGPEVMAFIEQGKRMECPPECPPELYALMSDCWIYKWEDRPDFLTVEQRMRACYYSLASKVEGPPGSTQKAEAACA
The assay is described as follows: Zap70 enzymatic assay (Caliper LifeSciences technology). The procedure: as §1, §2, §3, §4, §5

Bounds are passed on as bounds.

In general, IC50 refers to the concentration needed to halve the response being measured.

Regarding `FC(F)(F)c1cccc(Nc2nc3c(-c4cccnc4)nccn3n2)c1` [Example C20, (8-Pyridin-3-yl-[1,2,4]triazolo[1,5-a]pyrazin-2-yl)-(3-trifluoromethyl-phenyl)-amine], the IC50 at Syk was 0.3 to 3 µM; at Src, 3 to 50 µM; against KDR it was 3 to 50 µM.

On to `CN(C)CCCNc1nccn2nc(Nc3ccccc3)nc12` [Example C50, N^8-(3-Dimethylamino-propyl)-N^2-phenyl-[1,2,4]triazolo[1,5-a]pyrazine-2,8-diamine], for which the IC50 at Syk, at ZAP-70 and on KDR was 3 to 50 µM throughout.

Take `Cc1cc(C)cc(Nc2nc3c(Cl)nccn3n2)c1` [Example B1, 8-Chloro-[1,2, 4]triazolo[1,5-a]pyrazin-2-yl-(3,5-dimethyl-phenyl)-amine]: the IC50 fell in the range of 3 to 50 µM at Syk, 0.3 to 3 µM at ZAP-70 and 3 to 50 µM on KDR.

`c1ccc(Nc2nc3c(-c4cccnc4)nccn3n2)cc1` [Example C22, Phenyl-(8-pyridin-3-yl-[1,2,4]triazolo[1,5-a]pyrazin-2-yl)-amine]: the values for the IC50 at Syk, against Src and against KDR were 3 to 50 µM, 3 to 50 µM and 0.3 to 3 µM, respectively.

Consider `COc1cc(Nc2nc3c(NCCN)nccn3n2)cc(OC)c1` [Example C29, N^8-(2-Amino-ethyl)-N^2-(3,5-dimethoxy-phenyl)-[1,2,4]triazolo[1,5-a]pyrazine-2,8-diamine], for which the IC50 on Syk, at Src and on KDR was 3 to 50 µM in each case.

As to `Cc1cccc(Nc2nc3c(-c4cccnc4)nccn3n2)c1` [Example C21, (8-Pyridin-3-yl-[1,2,4]triazolo[1,5-a]pyrazin-2-yl)-m-tolyl-amine], the IC50 on Syk is 0.3 to 3 µM; against ZAP-70, 3 to 50 µM; at KDR it was 0.3 to 3 µM.

As for `NCCNc1nccn2nc(Nc3cccc(C(F)(F)F)c3)nc12` [Example C41, N^8-(2-Amino-ethyl)-N^2-(3-trifluoromethyl-phenyl)-[1,2,4]triazolo[1,5-a]pyrazine-2,8-diamine], the IC50 at Syk, against ZAP-70 and against KDR was 3 to 50 µM each time.

With `COc1cc(Nc2nc3c(NCCCN(C)C)nccn3n2)cc(OC)c1` [Example C38, N^2-(3,5-Dimethoxy-phenyl)-N^8-(3-dimethylamino-propyl)-[1,2,4]triazolo[1,5-a]pyrazine-2,8-diamine], the IC50 at Syk, at Src and at KDR was 3 to 50 µM throughout.

In the case of `c1ccc(Nc2nc3c(NCCCN4CCOCC4)nccn3n2)cc1` [Example C51, N^8-(3-Morpholin-4-yl-propyl)-N^2-phenyl-[1,2,4]triazolo[1,5-a]pyrazine-2,8-diamine], the IC50 on ZAP-70 lay in the range of 0.3 to 3 µM; on KDR it was 3 to 50 µM.

`COc1cc(Nc2nc3c(NCCCN4CCOCC4)nccn3n2)cc(OC)c1` [Example C39, N^2-(3,5-Dimethoxy-phenyl)-N^8-(3-morpholin-4-yl-propyl)-[1,2,4]triazolo[1,5-a]pyrazine-2,8-diamine]: the IC50 on Syk, on Src and against KDR was 3 to 50 µM each time.

Take `CN1CCN(CCCNc2nccn3nc(Nc4cccc(C(F)(F)F)c4)nc23)CC1` [Example C43, N^843-(4-Methyl-piperazin-1-yl)-propyq-N^2-(3-trifluoromethyl-phenyl)-[1,2,4]triazolo[1,5-a]pyrazine-2,8-diamine]: the IC50 at ZAP-70 and against KDR was 3 to 50 µM throughout.

Take `CN1CCN(CCCNc2nccn3nc(Nc4ccccc4)nc23)CC1` [Example C52, N^8-[3-(4-Methyl-piperazin-1-yl)-propyl]-N^2-phenyl-[1,2,4]triazolo[1,5-a]pyrazine-2,8-diamine]: the IC50 against ZAP-70 and on KDR was 3 to 50 µM each time.

As for `Cn1ccnc1Sc1ccc(Nc2nc3c(Nc4ccccc4)nccn3n2)cc1Cl` [Example C80, N^2-[3-Chloro-4-(1-methyl-1H-imidazol-2-ylsulfanyl)-phenyl]-N^8-phenyl-[1,2,4]triazolo[1,5-a]pyrazine-2,8-diamine], the IC50 at Syk lay within 3 to 50 µM; against ZAP-70, 0.3 to 3 µM.

Consider `COc1cc(OC)cc(-c2nccn3nc(Nc4ccc(Sc5nccn5C)c(Cl)c4)nc23)c1` [Example C25, [3-Chloro-4-(1-methyl-1H-imidazol-2-ylsulfanyl)-phenyl]-[8-(3,5-dimethoxy-phenyl)-[1,2,4]triazolo[1,5-a]pyrazin-2-yl]-amine], for which the IC50 on Syk, against ZAP-70 and on KDR was 3 to 50 µM throughout.

As for `Cc1cccc(Nc2nccn3nc(Nc4ccc(Sc5nccn5C)c(Cl)c4)nc23)c1` [Example C79, N^2-[3-Chloro-4-(1-methyl-1H-imidazol-2-ylsulfanyl)-phenyl]-N^8-m-tolyl-[1,2,4]triazolo[1,5-a]pyrazine-2,8-diamine], the IC50 lay within 3 to 50 µM at Syk and 0.3 to 3 µM against ZAP-70.

In the case of `COc1cc(Nc2nc3c(Cl)nccn3n2)cc(OC)c1` [Example B2, 8-Chloro-[1,2,4]triazolo[1,5-a]pyrazin-2-yl-(3,5-dimethoxy-phenyl)-amine], the IC50 at Syk and at Src was 3 to 50 µM in each case.

With `O=C1Cc2cc(Nc3nc4c(-c5cnc6ccccc6c5)nccn4n3)ccc2N1` [Example C263, 5-(8-Quinolin-3-yl-[1,2,4]triazolo[1,5-a]pyrazin-2-ylamino)-1,3-dihydro-indol-2-one], the IC50 at Syk and against ZAP-70 was 3 to 50 µM throughout.

Regarding `Cc1cc(C)cc(Nc2nccn3nc(Nc4ccc(Sc5nccn5C)c(Cl)c4)nc23)c1` [Example C77, N^2-[3-Chloro-4-(1-methyl-1H-imidazol-2-ylsulfanyl)-phenyl]-N^8-(3,5-dimethyl-phenyl)-[1,2,4]triazolo[1,5-a]pyrazine-2,8-diamine], the IC50 on Syk and at ZAP-70 was 3 to 50 µM in each case.

With `Cc1cc(C)cc(Nc2nccn3nc(Nc4ccc5cnn(Cc6ccccc6)c5c4)nc23)c1` [Example C81, N^2-(1-Benzyl-1H-indazol-6-yl)-N^8-(3,5-dimethyl-phenyl)-[1,2,4]triazolo[1,5-a]pyrazine-2,8-diamine], the IC50 on Syk and on ZAP-70 was 3 to 50 µM each time.

As to `Cc1cccc(Nc2nc3c(-c4ccccc4)nccn3n2)c1` [Example C1, (8-Phenyl-[1,2,4]triazolo[1,5-a]pyrazin-2-yl)-m-tolyl-amine], the IC50 on Syk was 0.3 to 3 µM; against ZAP-70, 3 to 50 µM; against KDR, < 0.3 µM.

Turning to `COc1cc(OC)cc(-c2nccn3nc(Nc4ccc5cnn(Cc6ccccc6)c5c4)nc23)c1` [Example C26, (1-Benzyl-1H-indazol-6-yl)-[8-(3,5-dimethoxy-phenyl)-[1,2,4]triazolo[1,5-a]pyrazin-2-yl]-amine], the IC50 at Syk and against ZAP-70 was 0.3 to 3 µM throughout.

The record behind these values is patent US9023851B2 (Merck Patent GmbH, priority 2010, dated 2015).
